Test results as given in ChEMBL document CHEMBL5137055, “Near-Infrared Fluorescent Probes as Imaging and Theranostic Modalities for Amyloid-Beta and Tau Aggregates in Alzheimer's Disease” (J Med Chem, 2022).

What was measured:
[1] = Binding affinity to amyloid beta (unknown origin) aggregates; design: species or system Homo sapiens
[2] = Binding affinity to amyloid beta (unknown origin) monomer; design: species or system Homo sapiens
[3] = biological target: T1, Amyloid-beta precursor protein (Homo sapiens, UniProt P05067); assay: Binding affinity to human amyloid beta (1 to 42) oligomer measured by fluorescence assay
T1 sequence (P05067 whole entry): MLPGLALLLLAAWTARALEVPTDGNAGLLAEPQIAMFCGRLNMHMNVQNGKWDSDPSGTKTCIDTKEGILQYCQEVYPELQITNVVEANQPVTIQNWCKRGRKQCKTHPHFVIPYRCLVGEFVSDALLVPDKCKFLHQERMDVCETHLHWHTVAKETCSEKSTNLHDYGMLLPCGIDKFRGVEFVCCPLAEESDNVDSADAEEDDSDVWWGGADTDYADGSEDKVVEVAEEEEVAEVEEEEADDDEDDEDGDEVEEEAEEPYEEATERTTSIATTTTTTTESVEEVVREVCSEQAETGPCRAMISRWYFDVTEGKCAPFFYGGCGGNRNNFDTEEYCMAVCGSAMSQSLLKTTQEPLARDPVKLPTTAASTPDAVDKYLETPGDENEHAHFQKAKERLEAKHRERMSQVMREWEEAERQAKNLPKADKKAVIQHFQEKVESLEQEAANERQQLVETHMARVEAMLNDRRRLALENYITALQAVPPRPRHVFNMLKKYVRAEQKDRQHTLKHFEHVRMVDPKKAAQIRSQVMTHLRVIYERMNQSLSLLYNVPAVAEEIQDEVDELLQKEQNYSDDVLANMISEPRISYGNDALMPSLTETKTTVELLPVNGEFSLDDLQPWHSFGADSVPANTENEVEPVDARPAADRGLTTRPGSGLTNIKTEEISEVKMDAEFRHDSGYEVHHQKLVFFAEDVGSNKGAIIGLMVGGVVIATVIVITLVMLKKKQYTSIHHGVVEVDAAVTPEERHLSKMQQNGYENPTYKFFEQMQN

[4] = biological target: T1, Amyloid-beta precursor protein; assay: Binding affinity to human amyloid beta (1 to 40) aggregates measured by fluorescence assay
[5] = biological target: T1, Amyloid-beta precursor protein; assay: Binding affinity to human amyloid beta (1 to 42) monomer measured by fluorescence assay
[6] = Binding affinity to amyloid beta (unknown origin); design: species or system Homo sapiens
[7] = Binding affinity to tau protein (unknown origin); design: species or system Homo sapiens
[8] = Drug uptake in brain of Tg mouse; assay type: ADME, tissue-based; details: for tissue uptake: Tg, brain, read-out: Drug uptake
[9] = biological target: T1, Amyloid-beta precursor protein; assay: Binding affinity to amyloid beta (1 to 42) (unknown origin) aggregates
[10] = biological target: T1, Amyloid-beta precursor protein; assay: Displacement of [125I]IMPY from amyloid beta (1 to 42) (unknown origin) measured by competitive radioligand binding assay
[11] = Lipophilicity, logP of compound; assay type: physicochemical; details: octanol/water
[12] = biological target: T1, Amyloid-beta precursor protein; assay: Binding affinity to amyloid beta (1 to 40) (unknown origin) oligomer
[13] = biological target: T1, Amyloid-beta precursor protein; assay: Binding affinity to amyloid beta (1 to 42) (unknown origin) oligomer
[14] = biological target: T1, Amyloid-beta precursor protein; assay: Binding affinity to amyloid beta (1 to 42) (unknown origin) fibrils
[15] = biological target: T1, Amyloid-beta precursor protein; assay: Binding affinity to amyloid beta (1 to 42) (unknown origin) monomer
[16] = biological target: T1, Amyloid-beta precursor protein; assay: Binding affinity to amyloid beta (1 to 40) (unknown origin) fibrils
[17] = biological target: T1, Amyloid-beta precursor protein; assay: Binding affinity to amyloid beta (1 to 40) (unknown origin) monomer

SMILES: CC(=C(C#N)C#N)c1ccc2cc(N(C)CCF)ccc2c1
- Ki [1]: 0.0002 µM

SMILES: COc1ccc(/C=C/C2=[N+]3C(=C(/C=C/c4ccc(N(C)C)cc4)c4ccc(/C=C/c5ccc(OC)cc5)n4[B-]3(F)F)C=C2)cc1
- Kd [2]: 0.32 µM

SMILES: CN(C)c1ccc(/C=C/C2=CC(/C=C/c3ccc(N(C)C)cc3)=[O+][B-]3(OC(=O)C(=O)O3)O2)cc1
- Kd [3]: 0.0038 µM
- Kd [4]: 0.0381 µM
- Kd [5]: 0.0032 µM

SMILES: CN(C)c1ccc2cc3c(cc2c1)OCC(C=C(C#N)C#N)=C3
- Kd [6]: 0.0446 µM

SMILES: O=C(O)c1cc(/N=N/c2ccc(-c3ccc(/N=N/c4ccc(O)c(C(=O)O)c4)cc3)cc2)ccc1O [CHRYSAMINE G]
- Ki [6]: 370 nM

SMILES: COCCOCCOCC1=C2C(C)=CC(/C=C/c3ccc(N(C)C)cc3)=[N+]2[B-](F)(F)n2c(/C=C/c3ccc(N(C)C)cc3)cc(C)c21
- Kd [2]: 0.097 µM

SMILES: COCCOCCOCC1=C2C(C)=CC(C)=[N+]2[B-](F)(F)n2c(/C=C/c3ccc(N(C)C)cc3)cc(C)c21
- Kd [2]: 0.0486 µM

SMILES: CN(C)c1ccc2nc(/C=C/C=C/C=C(C#N)C#N)cnc2c1
- Kd [6]: 0.0332 µM
- Kd [7]: 0.0431 µM
- Drug uptake ([8]; in vivo): 7.76%

SMILES: Cc1cc(/C=C/c2ccc(N(C)C)o2)n2c1C=C1C=CC=[N+]1[B-]2(F)F
- Kd [2]: 0.149 µM

SMILES: COCCOCCOCCOC(=O)/C(C#N)=C/c1ccc(-c2ccc3cc(N4CCCCC4)ccc3c2)n1C
- Kd [1]: 2.3 µM

SMILES: CC1=CC(C)=[N+]2C1=Cc1ccc(/C=C/c3ccc(-c4ccc([125I])cc4)s3)n1[B-]2(F)F
- Ki [9]: 0.108 µM

SMILES: Cc1cc(/C=C/c2ccc3cc(N(C)C)ccc3c2)n2c1C=C1C=CC=[N+]1[B-]2(F)F
- Kd [1]: 0.161 µM
- Kd [7]: 0.00119 µM

SMILES: COC(=O)/C(C#N)=C/C=C/C=C/c1ccc(N(C)C)cc1
- Kd [10]: 0.106 µM

SMILES: CN(C)c1ccc2cc(/C=C/C=C(C#N)C#N)ccc2c1
- Kd [1]: 0.0088 µM
- Ki [1]: 0.0967 µM
- logP [11]: 4.1
- tissue uptake [8]: 1.9 %ID/g

SMILES: CN(C)c1ncc(/C=C/C=C/C=C/C=C(C#N)C#N)cn1
- Ki [6]: 978 nM

SMILES: COCCOCCOCCOC(=O)/C(C#N)=C/c1ccc(N2CCCCC2)cc1
- Kd [1]: 19.4 µM

SMILES: CN(C)c1ccc(/C=C/c2cnc3ccccc3n2)s1
- Kd [6]: 0.0252 µM
- Kd [7]: 0.127 µM

SMILES: CCCCN(CCCC)c1ccc2cc(/C=C/c3c[n+](C)cc4ccccc34)ccc2c1
- Kd [12]: 36.4 µM
- Kd [13]: 20.8 µM
- Kd [14]: 97.9 µM
- Kd [15]: 25.3 µM
- Kd [16]: 1110 µM
- Kd [17]: 81 µM

SMILES: COCCOCCn1c2ccccc2c2cc(/C=C/c3cc[n+](C)c4ccccc34)ccc21
- Kd [14]: 11.4 µM
- Kd [15]: 40.2 µM
- Kd [16]: 13.1 µM
- Kd [17]: 96.6 µM

SMILES: Cc1ccc2nc(-c3ccc(N(C)C)cc3)sc2c1
- Ki [16]: 0.143 µM

SMILES: CN(C)c1ccc(/C=C/c2cc(/C=C/c3ccc(N(C)C)cc3)ncn2)cc1
- IC50 [6]: 0.004 µM
- Kd [7]: 0.054 µM

SMILES: CN(C)c1ccc(/C=C/C=C/C=C2C(=O)CC(C)(C)CC2=O)cc1
- Ki [9]: 0.645 µM

SMILES: C(=C\c1cc(/C=C/c2ccc(N3CCCC3)cc2)ncn1)/c1ccc(N2CCCC2)cc1
- IC50 [6]: 0.002 µM
- Kd [7]: 0.052 µM

SMILES: COc1ccc(/C=C/c2ccc3n2[B-](F)(F)[N+]2=C(C)C=CC2=C3/C=C/c2ccc(N(C)C)cc2)cc1
- Kd [2]: 0.23 µM

SMILES: COCCOCCn1c2ccccc2c2cc(/C=C/c3cc[n+](CCO)c4ccccc34)ccc21
- Kd [16]: 92 µM

SMILES: CN(C)c1ncc(/C=C/c2nc3cc(OCC[18F])ccc3[se]2)cn1
- Kd [6]: 0.0017 µM
- logP [11]: 1.28

SMILES: CC1=[N+]2C(=C(/C=C/c3ccc(N(C)C)cc3)c3ccc(C)n3[B-]2(F)F)C=C1
- Kd [2]: 0.32 µM

SMILES: CC[n+]1c(/C=C/C=C/c2ccc(N(C)C)cc2)sc2ccccc21
- Kd [16]: 1.22 µM
- Kd [7]: 0.126 µM

SMILES: CN(C)c1ccc(/C=C/C=C/C=C2C(=O)OC(C)(C)OC2=O)cc1
- Ki [9]: 0.354 µM

SMILES: C[n+]1ccc(/C=C/c2ccc(N(c3ccccc3)c3ccccc3)cc2)c2ccccc21
- Kd [14]: 17.4 µM
- Kd [15]: 31.7 µM
- Kd [16]: 14.6 µM
- Kd [17]: 25.9 µM

SMILES: CCCCN(CCCC)c1ccc2cc(/C=C/c3cc[n+](CCO)c4ccccc34)ccc2c1
- Kd [12]: 41.7 µM
- Kd [13]: 490 µM
- Kd [14]: 848 µM
- Kd [15]: 1090 µM
- Kd [16]: 33.3 µM
- Kd [17]: 246 µM

SMILES: CC(C)CC1=CC(/C=C/C=C/c2ccc(N(C)C)cc2)=[O+][B-](F)(F)O1
- Kd [6]: 1.41 µM
- Kd [7]: 50 µM

SMILES: CN(CCO)c1ccc2cc(/C=C/C=C/C=C(C#N)C#N)ccc2c1
- Kd [10]: 0.0145 µM

SMILES: COCCOCCn1c2ccccc2c2cc(/C=C/c3cc[n+](CCO)cc3)ccc21
- Kd [16]: 459 µM

SMILES: Cc1cc(/C=C/C=C/c2ccc(N(C)C)cc2)n2c1C=C1C=CC=[N+]1[B-]2(F)F
- Kd [1]: 0.325 µM
- Kd [7]: 0.00286 µM

SMILES: COCCOCCn1c2ccccc2c2cc(/C=C/c3cc[n+](C)cc3)ccc21
- Kd [16]: 194 µM

SMILES: COCCOCCOCCOC(=O)/C(C#N)=C/c1ccc(-c2ccc3cc(N4CCCCC4)ccc3c2)s1
- Kd [1]: 0.53 µM

SMILES: COC(=O)C(=C/C=C/C=C/c1ccc(N(C)C)cc1)C(=O)OC
- Ki [6]: 645 nM
- Ki [10]: 0.652 µM

SMILES: CCO[n+]1ccc(/C=C/c2ccc(N(C)C)cc2)c2ccccc21
- Kd [14]: 7.78 µM
- Kd [15]: 17.6 µM
- Kd [16]: 4.29 µM
- Kd [17]: 13 µM

SMILES: CN(C)c1ccc2nc(C=C(C#N)C#N)sc2c1
- Kd [14]: 0.12 µM

SMILES: CCN(CC)c1ccc(/C=C/C2=CC(/C=C/c3ccc(N(C)C)cc3)=[O+][B-](F)(F)O2)cn1
- Kd [15]: 0.0458 µM
- Kd [17]: 0.106 µM
- logP [11]: 1.94

SMILES: CN(C)c1ccc2cc(/C=C/C=C/C=C(C#N)C#N)ccc2c1
- Kd [1]: 0.0019 µM
- Ki [1]: 0.0327 µM
- logP [11]: 4.48
- tissue uptake [8]: 3.4 %ID/g

SMILES: CN(C)c1ccc(-c2ccc(/C=C/C3=CC(=C(C#N)C#N)c4ccccc4N3CCCS(=O)(=O)O)s2)cc1
- Kd [6]: 0.17 µM

SMILES: Cc1cc(/C=C/c2ccc(N(C)C)s2)n2c1C=C1C=CC=[N+]1[B-]2(F)F
- Kd [2]: 0.055 µM

SMILES: COCCOCCn1c2ccc(F)cc2c2cc(/C=C/c3cc[n+](CCO)c4ccccc34)ccc21
- Kd [12]: 0.66 µM
- Kd [16]: 1.9 µM
- Kd [17]: 3.22 µM

SMILES: COc1cc(N(C)C)cc(OC)c1/C=C/C(=O)/C=C(O)/C=C/c1c(OC)cc(N(C)C)cc1OC
- IC50 [7]: 0.77 µM

SMILES: Cc1cc(/C=C/c2ccc(-c3ccc(N(C)C)cc3)o2)n2c1C=C1C=CC=[N+]1[B-]2(F)F
- Kd [2]: 0.018 µM

SMILES: CCCN(CCC)c1ccc(/C=C/c2cc[n+](OCC)c3ccccc23)cc1
- Kd [14]: 3.19 µM
- Kd [15]: 13.1 µM
- Kd [16]: 1.13 µM
- Kd [17]: 6.18 µM

SMILES: Cc1cc(/C=C/c2ccc(-c3ccc(N(C)C)cc3)s2)n2c1C=C1C=CC=[N+]1[B-]2(F)F
- Kd [2]: 0.027 µM

SMILES: C[N+]1=C(/C=C/c2ccc(N3CCCC3)cc2)C(C)(C)c2ccccc21
- Kd [16]: 8.31 µM
- IC50 [7]: 0.0051 µM

SMILES: CCN1/C(=C/C=C2\CCCC(/C=C(/C#N)C(=O)C(C)(C)C)=C2Cl)C(C)(C)c2ccccc21
- Kd [9]: 0.445 µM

SMILES: COCCOCCOCCOC(=O)/C(C#N)=C/c1ccc(-c2ccc3cc(N4CCCCC4)ccc3c2)o1
- Kd [1]: 0.36 µM

SMILES: CNc1ccc(-c2nc3ccc(O)cc3s2)cc1[18F] [FLUTEMETAMOL F 18]
- Kd [6]: 0.0067 µM

SMILES: COc1cc(N(C)C)cc(OC)c1/C=C/C=C/C=C/C(C#N)C(=O)OCc1ccco1 (centres undefined)
- Kd [6]: 1.5 µM
- Kd [7]: 1.02 µM

SMILES: CC(=C(C#N)C#N)c1ccc2cc(N(C)C)ccc2c1
- Ki [1]: 0.01 µM

SMILES: Cc1ccc2c(sc(-c3ccc4c(c3)sc(-c3ccc(N(C)C)cc3)[n+]4C)[n+]2C)c1S(=O)(=O)O
- Kd [7]: 1.9 µM

SMILES: CN(C)c1ccc(/C=C/C=C/C=C/C=C(C#N)C#N)cc1
- Ki [6]: 14.1 nM

SMILES: CN(C)c1ccc(/C=C/C=C/C=C/C=C(C#N)C#N)cn1
- Ki [6]: 92.6 nM

SMILES: COc1cc(/C=C/C(O)=C/C(=O)/C=C/c2ccc(OCCCF)c(OC)c2)ccc1O
- Ki [6]: 0.07 nM

SMILES: CCCCN(CCCC)c1ccc2cc(/C=C/c3cc[n+](C)c4ccccc34)ccc2c1
- Kd [12]: 20.1 µM
- Kd [13]: 128 µM
- Kd [14]: 246 µM
- Kd [15]: 281 µM
- Kd [16]: 39.3 µM
- Kd [17]: 71.1 µM

SMILES: CN(C)c1ccc(/C=C/C=C/C=C(C#N)C#N)cc1
- Kd [9]: 0.0269 µM
- Ki [9]: 0.0369 µM

SMILES: CN(C)c1ccc2nc(/C=C/c3ccc(C=C(C#N)C#N)cc3)sc2c1
- Kd [14]: 0.11 µM

SMILES: N#CC(C#N)=Cc1ccc(-c2ccc(-c3ccc(O)cc3)s2)s1
- Kd [6]: 0.0546 µM
- Ki [6]: 10 nM

SMILES: Cc1cc(/C=C/c2ccc(N(C)C)cc2)n2c1C=C1C=CC=[N+]1[B-]2(F)F
- Kd [2]: 0.189 µM
- Kd [7]: 0.0441 µM
